Results on 17 compounds are retold here after patent US20240174690A1, “ANNULATED 2-AMINO-3-CYANO THIOPHENES AND DERIVATIVES FOR THE TREATMENT OF CANCER” (BOEHRINGER INGELHEIM INTERNATIONAL GMBH, priority 2021, published 2024).

For data set [1], the system named is KRAS G12D-dependent Ba/F3 cells. Kind of data set: Ba/F3 proliferation assay, KRAS G12D. It counts as cell-based. The settings on record: Mus musculus, BaF3, 72 h, AlamarBlue. The method in brief: (§1)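 Transforming KRAS G12 mutants replaced IL-3 dependence in retrovirally engineered Ba/F3 cells, with puromycin omitted about ten days before testing. Growth under compound was quantified with an AlamarBlue fluorescent viability stain, in duplicate, by curve fitting.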

Data set [2] has as its system KRAS G12V-dependent Ba/F3 cells. Kind of data set: Ba/F3 proliferation assay, KRAS G12V.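 Further: proliferation IC50 in KRAS G12V-dependent Ba/F3 cells read by AlamarBlue.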 The format is cell-based. The note with it: Mus musculus, BaF3, 72 h, AlamarBlue. The method in brief: as §1
A general note: Alamar Blue is a resazurin reagent that responds to reducing activity.

Another data set deals with SAS cells. The data set can be described thus: SAS CTG proliferation assay (120 h) (HNSCC, wt amplified). The format is cell-based. The method in brief: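 SAS cells plated at 300 per well in DMEM:F12 with 10% FCS and left overnight, then given compounds acoustically. After 120 h exposure, viability read by CellTiter-Glo as percent of DMSO control. IC50 from four-parameter non-linear regression.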

Data set [3] can be described thus: Metabolic (microsomal) stability assay, human liver microsomes (HLM). The format is in vitro ADME. The settings on record: predicted clearance as percent of liver blood flow, 1 μM. The method in brief:
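LC-MS/MS tracked parent disappearance at 0, 5, 15, 30 and 60 min in NADPH-initiated incubations with 1 mg/mL human microsomal protein and 1 μM compound at 37°C, pH 7.5. First-order fits gave intrinsic clearance, which was scaled up and reported as % QH. NADPH-free controls were also run.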

Data set [4] can be described thus: Plasma protein binding assay (PPB), equilibrium dialysis, 10% FCS in PBS. The note with it: bovine, read-out: PPB 10% FCS (% fu). It counts as in vitro ADME. In outline: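 Equilibrium dialysis (5-10 kg/mol cut-off membrane) of 1-10 μmol/L test compound in 10% FCS/PBS against PBS with or without dextran, 3-5 h at 37° C. Compound in each chamber quantified by LC-MS after protein precipitation; fu calculated from Cserum and Cbuffer.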
In general terms: In equilibrium dialysis free small molecules cross a membrane that holds back macromolecules.

The structures appear in SMILES notation.

By IC50 is commonly meant the concentration at which inhibition is half-maximal. A higher IC50 goes with a need for much substance. `C[C@H](Oc1cc(N2C[C@H](C)N(C)[C@@H](C)C2)nc(-c2noc3c2CCC[C@@]32CCCc3sc(N)c(C#N)c32)n1)[C@@H]1CCCN1C` [II-173]: the values for the IC50 (in data set [1]; in data set [2]; in the data set on SAS cells) were 51 nM, 678 nM and 751 nM, respectively. In data set [3], the “HLM QH” value was less than 24%. For the same compound, the fraction unbound in data set [4] came to 0.41.
With `CO[C@@H]1C[C@@H]([C@H](C)Oc2cc(N3CCN(C)C4(CC4)C3)nc(-c3noc4c3CCC[C@@]43CCCc4sc(N)c(C#N)c43)n2)N(C)C1` [II-152], the IC50 in data set [1] came out at 68 nM; in data set [2], 1190 nM; in the data set on SAS cells it was 4230 nM. The “HLM QH” value in data set [3] is 58%. In data set [4], the fraction unbound was determined as 0.08.
For `CO[C@H]1CCN(C)[C@@H]1[C@H](C)Oc1cc(-n2ccc(CC(=O)NC(C)C)n2)nc(-c2noc3c2CCC[C@@]32CCCc3sc(N)c(C#N)c32)n1` [II-183], in that order: 12 nM, 3 nM, 6 nM, 75% and 0.04.
Taken in the same sequence, the figures for `CO[C@@H]1C[C@@H]([C@H](C)Oc2cc(-c3cnn(C)n3)nc(-c3onc4c3CCC[C@@]43CCCc4sc(N)c(C#N)c43)n2)N(C)C1` [I-17] were 77 nM, 23 nM, 241 nM, 56% and 0.24.
`C[C@H](Oc1cc(-c2ccn([C@H]3CCOC3)n2)nc(-c2noc3c2CCC[C@@]32CCCc3sc(N)c(C#N)c32)n1)[C@@H]1CCCN1C` [II-127]: the IC50 in data set [1] was found to be 109 nM; in data set [2] it was 13 nM; in the data set with SAS cells, 18 nM. Also, in data set [3], the “HLM QH” value is recorded as less than 24%. Besides, in data set [4], the fraction unbound is 0.08.
In the case of `CC(C)N1CCCN(c2cc(-c3ccn(C)n3)nc(-c3noc4c3CCC[C@@]43CCCc4sc(N)c(C#N)c43)n2)[C@@H](C)C1` [II-170], the IC50 in data set [1] came out at 89 nM; in data set [2], 17 nM; with SAS cells, 1050 nM. Moreover, in data set [3], the “HLM QH” value is listed as 33%. Also, the fraction unbound in data set [4] was 0.32.
On to `C[C@H](Oc1nc(-c2noc3c2CCC[C@@]32CCCc3sc(N)c(C#N)c32)nc(N2C[C@H](C)NC3(CC3)C2)c1F)[C@@H]1C[C@@H](F)CN1C` [II-157], for which the 50% inhibitory concentration (IC50) in data set [1] came out at 17 nM; in data set [2] it was 258 nM; in the data set with SAS cells, 1190 nM. For the same compound, the “HLM QH” value in data set [3] is on record as 69%. Besides, in data set [4], the fraction unbound stood at 0.03.
Taken in the same sequence, the figures for `CC(C)NC(=O)Cc1ccn(-c2cc(O[C@@H](C)[C@@H]3CCCN3C)nc(-c3noc4c3CCC[C@@]43CCCc4sc(N)c(C#N)c43)n2)n1` [II-182] were 16 nM, 3 nM, 32 nM, 35% and 0.13.
Taken in the same sequence, the figures for `C[C@@H]1CN(c2cc(O[C@@H](C)[C@@H]3CCCN3C)nc(-c3noc4c3CCC[C@@]43CCCc4sc(N)c(C#N)c43)n2)CCN1` [II-161] were 250 nM, 971 nM, 1580 nM, less than 24% and 0.37.
For `C[C@H](Oc1nc(-c2noc3c2CCC[C@@]32CCCc3sc(N)c(C#N)c32)nc(N2CCNC3(CC3)C2)c1Cl)[C@@H]1C[C@@H](F)CN1C` [II-156], in that order: 16 nM, 271 nM, 440 nM, 65% and 0.04.
As to `C[C@H](Oc1cc(-n2cc3c(n2)CNC3)nc(-c2noc3c2CCC[C@@]32CCCc3sc(N)c(C#N)c32)n1)[C@@H]1C[C@@H](F)CN1C` [II-154], the IC50 in data set [1] was 82 nM; in data set [2], 135 nM; in the data set on SAS cells it was 747 nM. Moreover, the “HLM QH” value in data set [3] was 76%. The fraction unbound in data set [4] was 0.1.
For `[2H]C([2H])([2H])N1C[C@H](F)C[C@H]1[C@H](C)Oc1cc(N2CCN(C([2H])([2H])[2H])C3(CC3)C2)nc(-c2noc3c2CCC[C@@]32CCCc3sc(N)c(C#N)c32)n1` [II-207], in that order: 18 nM, 387 nM, 1080 nM, 40% and 0.09.
For `C[C@H](Oc1cc(-c2ccn(Cc3ncco3)n2)nc(-c2noc3c2CCC[C@@]32CCCc3sc(N)c(C#N)c32)n1)[C@@H]1CCCN1C` [II-128], in that order: 83 nM, 31 nM, 46 nM, less than 24% and 0.06.
For `C[C@H](Oc1cc(N2CCN[C@@H](C)C2)nc(-c2noc3c2CCC[C@@]32CCCc3sc(N)c(C#N)c32)n1)[C@@H]1CCCN1C` [II-162], the IC50 is 41 nM in data set [1], 574 nM in data set [2] and 2120 nM with SAS cells. Moreover, the “HLM QH” value in data set [3] was less than 24%. Further, in data set [4], the fraction unbound came to 0.69.
For `CC(=O)N1CCN(c2cc(O[C@@H](C)[C@@H]3CCCN3C)nc(-c3noc4c3CCC[C@@]43CCCc4sc(N)c(C#N)c43)n2)CC12CC2` [II-178], in that order: 85 nM, 32 nM, 2570 nM, less than 24% and 0.46.
For `C[C@H](Oc1cc(N2Cc3cnn(C)c3C2)nc(-c2onc3c2CCC[C@@]32CCCc3sc(N)c(C#N)c32)n1)[C@@H]1CCCN1C` [I-19], in that order: 165 nM, 23 nM, 217 nM, less than 24% and 0.48.
For `C[C@H](Oc1cc(N2CCN(C)C3(CC3)C2)nc(-c2noc3c2CCC[C@@]32CCCc3sc(N)c(C#N)c32)n1)[C@@H]1CCCN1C` [II-171], in that order: 10 nM, 426 nM, 1100 nM, 32% and 0.23.
